Read-outs that look alike come from different tables or passages of the source.
Assay: Ocular tissue concentrations (aqueous humor, vitreous humor, iris, retina, choroid, cornea) after topical ocular, subcutaneous and intravitreal administration
Assay type: in vivo, New Zealand White rabbits
Settings: New Zealand White, rabbit; for concentration at 2 h / concentration at 4 h / concentration at 0.5 hr / concentration at 1 h: subcutaneous, 5 mg/kg/dose, subcutaneous 5 mg/kg/dose; for concentration at 6 h / concentration at 24 h / concentration at 48 h / concentration at 72 h: other: intravitreal, 2.5 mg/eye
Procedure: To measure the concentration of Compound 1 in plasma and ocular tissues following topical ocular, subcutaneous, and intravitreal administration, New Zealand White rabbits were administered Compound 1, and plasma and ocular samples were collected at pre-determined time points. Compound 1 formulations were prepared fresh on each day of dosing.
Ocular tissue samples from both eyes of each animal were collected and weights were recorded. Plasma and ocular tissue sample concentrations of Compound 1 were determined by LC-MS/MS.
New Zealand White rabbits weighing 2.5 to 3.5 kg were used on this study. Rabbits were housed one per cage. Animals were not fasted and only healthy animals with no ocular illness were used. Two rabbits per group were sacrificed at each of four ocular tissue sampling time points for a total of eight rabbits per group.
Animals were anesthetized for ocular (topical) and intravitreal dosing following the 12IA7 IACUC protocol. Each rabbit received a bolus dose of test formulation either via topical ocular administration 3 times daily on Days 1 and 2 (at 0, 6, and 12 hours), and once on Day 3 (at 0 hours) into both eyes; via intravitreal administration into both eyes once on Day 1 (at 0 hours); or via subcutaneous administration 2 times daily on Days 1 and 2 (at 0 and 8 hours) and once daily on Day 3 (at 0 hours). Doses were given within an approximately 1 hour window each day where applicable.
On Day 1, for intravitreal administration, or on Day 3, for topical ocular and subcutaneous administration, at the appropriate ocular tissue collection time points, animals were euthanized and both eyes were enucleated immediately. Following enucleation, each eye was rinsed with phosphate-buffered saline. Ocular tissue samples from both eyes of each animal were collected at predetermined time points and weights were recorded. All the samples were frozen immediately on dry ice, and stored at −60° C. to −80° C. pending bioanalysis.
An LC-MS/MS method was developed for the determination of Compound 1 in rabbit aqueous tissues (plasma, aqueous and vitreous humor) and solid ocular tissue samples. A pre-study standard curve was analyzed to determine the specificity, range, and lower limit of quantitation of the method. Plasma and tissue homogenate study samples were extracted and analyzed. All the samples were treated identically to the standards.
One eight-point standard curve was used in each analytical batch. To be accepted, each batch must have had at least five of eight standards with accuracy within ±20% of nominal, except at the lower limit of quantification (LLOQ), where ±25% was acceptable.
Concentration versus time data is plotted in FIGS. 3-16. All data are expressed as ng/g of the free drug. Samples that were below the limit of quantitation (0.2 ng/mL) were not used in the calculation of averages.

[1] = iris, TABLE 16: Iris, OD, free acid, Group 3, read-out: Iris Conc. (ng/g) OD
[2] = iris, TABLE 16: Iris, OS, free acid, Group 3, read-out: Iris Conc. (ng/g) OS
[3] = iris, TABLE 16: Iris, free acid, Group 3, read-out: Iris Average
[4] = retina homogenate, Retina homogenate, left eye, intravitreal 2.5 mg/eye (group 5), individual animals, read-out: Conc. (ng/mL) OS
[5] = retina homogenate, Retina homogenate, OD, sodium salt, intravitreal 2.5 mg/eye, Group 4, read-out: Retina Conc. (ng/mL) OD
[6] = retina homogenate, Retina homogenate, right eye, intravitreal 2.5 mg/eye (group 5), individual animals, read-out: Conc. (ng/mL) OD
[7] = retina homogenate, Retina homogenate, OS, sodium salt, intravitreal 2.5 mg/eye, Group 4, read-out: Retina Conc. (ng/mL) OS
[8] = retina homogenate, Retina homogenate, OD, sodium salt, Group 2, read-out: Retina Conc. (ng/mL) OD
[9] = retina homogenate, Retina homogenate, OS, sodium salt, Group 2, read-out: Retina Conc. (ng/mL) OS
[10] = retina homogenate, Retina homogenate, OD, free acid, Group 3, read-out: Retina Conc. (ng/mL) OD
[11] = retina homogenate, TABLE 16: Retina homogenate, OD, free acid, Group 3, read-out: Retina Conc. (ng/mL) OD
[12] = retina, Retina, OD, sodium salt, intravitreal 2.5 mg/eye, Group 4, read-out: Retina Conc. (ng/g) OD
[13] = retina, Retina, sodium salt, intravitreal 2.5 mg/eye, Group 4, read-out: Retina Avg.
[14] = retina, Retina, OS, sodium salt, intravitreal 2.5 mg/eye, Group 4, read-out: Retina Conc. (ng/g) OS

COC(=O)N[C@@H](Cc1ccccc1)C(=O)N[C@@H](Cc1ccc(NS(=O)(=O)O)cc1)c1csc(-c2cccs2)n1 [Compound 1]
concentration at 2 h [1]: 30.5 ng/g
concentration at 2 h [2]: 29.5 ng/g
concentration at 2 h [3]: 27.6 ng/g
concentration at 4 h [1]: 26.5 ng/g
concentration at 4 h [2]: 16.9 ng/g
concentration at 4 h [3]: 17.5 ng/g
concentration at 6 h [4]: 154000 ng/mL
concentration at 24 h [5]: 29200 ng/mL
concentration at 24 h [6]: 130000 ng/mL
concentration at 48 h [5]: 6490 ng/mL
concentration at 48 h [7]: 6030 ng/mL
concentration at 48 h [6]: 66700 ng/mL
concentration at 72 h [5]: 750 ng/mL
concentration at 72 h [7]: 370 ng/mL
concentration at 72 h [4]: 10800 ng/mL
concentration at 72 h [6]: 9890 ng/mL
concentration at 0.5 hr [8]: 2.77 ng/mL
concentration at 0.5 hr [9]: 4.36 ng/mL
concentration at 1 h [10]: 0.942 ng/mL
concentration at 1 h [8]: 2.04 ng/mL
concentration at 1 h (retina homogenate, Retina homogenate, OS, free acid, Group 3, read-out: Retina Conc. (ng/mL) OS): 0.63 ng/mL
concentration at 1 h [9]: 3.93 ng/mL
concentration at 2 h [10]: 0.574 ng/mL
concentration at 2 h [8]: 1.36 ng/mL
concentration at 2 h [9]: 1.62 ng/mL
concentration at 4 h [8]: 1.79 ng/mL
concentration at 1 h [11]: 0.942 ng/mL
concentration at 1 h (retina homogenate, TABLE 16: Retina homogenate, OS, free acid, Group 3, read-out: Retina Conc. (ng/mL) OS): 0.63 ng/mL
concentration at 2 h [11]: 0.574 ng/mL
concentration at 6 h [12]: 431000 ng/g
concentration at 6 h [13]: 774000 ng/g
concentration at 24 h [12]: 321000 ng/g
concentration at 24 h [14]: 308000 ng/g
concentration at 24 h [13]: 356000 ng/g
concentration at 48 h [12]: 71400 ng/g
concentration at 48 h [14]: 66300 ng/g
concentration at 48 h (retina, Retina, average, intravitreal 2.5 mg/eye (group 5), read-out: Avg.): 680000 ng/g
concentration at 48 h (retina, Retina, left eye, intravitreal 2.5 mg/eye (group 5), individual animals, read-out: Conc. (ng/g) OS): 154000 ng/g
concentration at 48 h (retina, Retina, right eye, intravitreal 2.5 mg/eye (group 5), individual animals, read-out: Conc. (ng/g) OD): 734000 ng/g

Source: patent US11666558B2, “Methods of treating intraocular pressure with activators of Tie-2” (EyePoint Pharmaceuticals, Inc., priority 2015, dated 2023)
